Experimental data taken from article PMC7026418, “The kinase polypharmacology landscape of clinical PARP inhibitors” (Scientific Reports, 2020).
Read-outs that look alike come from different tables or passages of the source.

Key:
Assay in all cases: biochemical
Set-up in all cases: DiscoveRx KINOMEscan active site-directed competition binding; percent of control kinase bound to immobilised ligand
FYN = FYN (Homo sapiens, UniProt P06241)
MAPKAPK5 = molecular target: T1, MAPKAPK5 (Homo sapiens, UniProt Q8IW41)
T1 sequence (Q8IW41 1-473): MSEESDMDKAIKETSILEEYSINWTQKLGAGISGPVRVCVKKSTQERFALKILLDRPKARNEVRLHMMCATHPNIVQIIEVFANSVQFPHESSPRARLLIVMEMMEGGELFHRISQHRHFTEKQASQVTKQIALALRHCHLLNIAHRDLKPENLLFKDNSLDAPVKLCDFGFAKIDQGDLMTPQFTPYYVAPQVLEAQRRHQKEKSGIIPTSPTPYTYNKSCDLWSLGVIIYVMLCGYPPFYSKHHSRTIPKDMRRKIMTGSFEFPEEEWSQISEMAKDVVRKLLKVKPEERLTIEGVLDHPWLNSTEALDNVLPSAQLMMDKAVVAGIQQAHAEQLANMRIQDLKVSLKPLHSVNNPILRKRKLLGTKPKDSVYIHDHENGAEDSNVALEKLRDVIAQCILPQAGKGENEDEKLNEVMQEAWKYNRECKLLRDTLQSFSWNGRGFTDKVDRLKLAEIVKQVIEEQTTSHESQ

AMPK-alpha2 = molecular target: T2, AMPK-alpha2 (Homo sapiens, UniProt P54646)
T2 construct: gene PRKAA2
T2 sequence (P54646 whole entry): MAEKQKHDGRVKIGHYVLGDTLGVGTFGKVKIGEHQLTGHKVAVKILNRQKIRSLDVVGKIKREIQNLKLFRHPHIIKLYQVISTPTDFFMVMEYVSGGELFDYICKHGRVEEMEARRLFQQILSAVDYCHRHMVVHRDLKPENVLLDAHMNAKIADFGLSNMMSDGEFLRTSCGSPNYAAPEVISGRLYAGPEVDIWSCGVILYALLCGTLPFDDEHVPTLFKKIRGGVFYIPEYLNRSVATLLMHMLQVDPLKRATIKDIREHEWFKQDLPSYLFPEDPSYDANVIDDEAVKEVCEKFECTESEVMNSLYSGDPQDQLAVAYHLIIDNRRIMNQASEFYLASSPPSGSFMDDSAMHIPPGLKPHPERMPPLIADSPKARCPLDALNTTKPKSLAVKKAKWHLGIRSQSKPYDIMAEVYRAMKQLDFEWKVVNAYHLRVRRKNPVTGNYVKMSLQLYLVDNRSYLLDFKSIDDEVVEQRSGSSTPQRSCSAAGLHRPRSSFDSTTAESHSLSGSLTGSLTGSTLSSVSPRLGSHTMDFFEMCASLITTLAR

IKK-alpha = molecular target: T3, IKK-alpha (Homo sapiens, UniProt O15111)
T3 construct: gene CHUK
T3 sequence (O15111 1-745): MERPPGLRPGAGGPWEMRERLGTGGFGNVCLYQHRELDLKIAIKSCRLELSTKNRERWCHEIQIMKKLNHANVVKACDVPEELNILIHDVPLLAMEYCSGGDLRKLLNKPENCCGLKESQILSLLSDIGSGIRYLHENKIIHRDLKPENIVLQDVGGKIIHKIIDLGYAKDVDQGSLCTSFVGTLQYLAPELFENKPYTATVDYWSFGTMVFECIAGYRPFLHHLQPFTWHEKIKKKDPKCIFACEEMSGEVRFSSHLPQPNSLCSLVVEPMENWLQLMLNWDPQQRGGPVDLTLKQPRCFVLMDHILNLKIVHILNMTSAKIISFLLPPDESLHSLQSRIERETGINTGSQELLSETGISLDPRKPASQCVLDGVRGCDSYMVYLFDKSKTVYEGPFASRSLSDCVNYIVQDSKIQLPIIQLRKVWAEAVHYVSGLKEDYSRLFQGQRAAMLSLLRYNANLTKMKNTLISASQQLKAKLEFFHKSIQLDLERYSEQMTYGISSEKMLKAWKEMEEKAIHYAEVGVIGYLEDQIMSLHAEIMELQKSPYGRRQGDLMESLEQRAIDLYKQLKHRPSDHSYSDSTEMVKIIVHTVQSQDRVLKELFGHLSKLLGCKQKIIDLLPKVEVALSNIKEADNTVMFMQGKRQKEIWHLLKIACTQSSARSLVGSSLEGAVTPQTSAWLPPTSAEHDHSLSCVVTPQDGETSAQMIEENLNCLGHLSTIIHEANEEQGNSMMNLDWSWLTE

DDR1 = DDR1 (Homo sapiens, UniProt Q08345)
Sequence of DDR1 (Q08345 whole entry): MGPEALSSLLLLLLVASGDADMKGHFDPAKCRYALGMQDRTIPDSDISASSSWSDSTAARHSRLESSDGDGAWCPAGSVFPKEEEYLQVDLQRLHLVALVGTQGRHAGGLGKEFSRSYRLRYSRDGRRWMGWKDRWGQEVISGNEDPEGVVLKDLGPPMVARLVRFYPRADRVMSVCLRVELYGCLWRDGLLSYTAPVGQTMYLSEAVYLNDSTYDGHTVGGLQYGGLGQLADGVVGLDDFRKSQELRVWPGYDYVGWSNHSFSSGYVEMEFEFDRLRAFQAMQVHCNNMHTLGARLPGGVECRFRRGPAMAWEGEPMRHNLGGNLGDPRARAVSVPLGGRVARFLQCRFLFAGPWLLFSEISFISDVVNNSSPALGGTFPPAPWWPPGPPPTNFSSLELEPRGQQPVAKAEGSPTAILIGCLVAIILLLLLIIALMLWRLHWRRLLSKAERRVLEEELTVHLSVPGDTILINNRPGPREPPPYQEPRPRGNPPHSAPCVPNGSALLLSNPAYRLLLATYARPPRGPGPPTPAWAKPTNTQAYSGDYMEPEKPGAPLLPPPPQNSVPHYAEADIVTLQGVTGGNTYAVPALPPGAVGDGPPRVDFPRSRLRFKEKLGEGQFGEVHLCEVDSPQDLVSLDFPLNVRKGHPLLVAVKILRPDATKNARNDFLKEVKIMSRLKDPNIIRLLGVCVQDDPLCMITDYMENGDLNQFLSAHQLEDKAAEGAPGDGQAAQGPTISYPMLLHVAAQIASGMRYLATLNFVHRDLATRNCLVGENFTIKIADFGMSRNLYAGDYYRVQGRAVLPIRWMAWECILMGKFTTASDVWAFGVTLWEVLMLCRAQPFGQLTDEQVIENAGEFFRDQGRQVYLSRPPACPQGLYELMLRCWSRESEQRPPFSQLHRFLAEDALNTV

EPHA5 = EPHA5 (Homo sapiens, UniProt P54756)
Sequence of EPHA5 (P54756 whole entry): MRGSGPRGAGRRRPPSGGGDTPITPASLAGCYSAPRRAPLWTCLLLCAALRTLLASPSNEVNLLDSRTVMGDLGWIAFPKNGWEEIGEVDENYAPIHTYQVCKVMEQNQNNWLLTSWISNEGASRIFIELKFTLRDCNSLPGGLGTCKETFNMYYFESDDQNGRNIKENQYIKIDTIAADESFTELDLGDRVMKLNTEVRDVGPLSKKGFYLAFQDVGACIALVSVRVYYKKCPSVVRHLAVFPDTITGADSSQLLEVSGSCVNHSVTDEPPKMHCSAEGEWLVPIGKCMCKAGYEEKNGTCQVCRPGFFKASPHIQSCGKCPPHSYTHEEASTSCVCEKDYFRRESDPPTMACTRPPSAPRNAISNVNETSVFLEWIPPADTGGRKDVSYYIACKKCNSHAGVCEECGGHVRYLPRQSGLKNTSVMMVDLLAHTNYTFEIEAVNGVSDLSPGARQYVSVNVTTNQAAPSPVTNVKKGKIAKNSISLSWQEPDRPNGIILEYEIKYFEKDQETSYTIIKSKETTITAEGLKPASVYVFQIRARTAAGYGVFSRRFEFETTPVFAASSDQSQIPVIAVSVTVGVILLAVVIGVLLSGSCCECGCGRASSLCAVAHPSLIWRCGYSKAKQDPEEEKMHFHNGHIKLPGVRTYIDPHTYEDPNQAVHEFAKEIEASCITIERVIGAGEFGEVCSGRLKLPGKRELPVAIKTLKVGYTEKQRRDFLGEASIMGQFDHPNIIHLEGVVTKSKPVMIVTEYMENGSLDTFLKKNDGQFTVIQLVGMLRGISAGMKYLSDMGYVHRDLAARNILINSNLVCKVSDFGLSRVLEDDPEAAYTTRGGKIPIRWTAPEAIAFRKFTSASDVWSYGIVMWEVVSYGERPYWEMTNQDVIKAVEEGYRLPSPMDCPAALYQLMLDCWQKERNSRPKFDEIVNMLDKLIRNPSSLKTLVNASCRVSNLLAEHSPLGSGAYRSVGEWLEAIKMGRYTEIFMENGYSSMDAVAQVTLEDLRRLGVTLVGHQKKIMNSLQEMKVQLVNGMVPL

LIMK2 = LIMK2 (Homo sapiens, UniProt P53671)
Sequence of LIMK2 (P53671 whole entry): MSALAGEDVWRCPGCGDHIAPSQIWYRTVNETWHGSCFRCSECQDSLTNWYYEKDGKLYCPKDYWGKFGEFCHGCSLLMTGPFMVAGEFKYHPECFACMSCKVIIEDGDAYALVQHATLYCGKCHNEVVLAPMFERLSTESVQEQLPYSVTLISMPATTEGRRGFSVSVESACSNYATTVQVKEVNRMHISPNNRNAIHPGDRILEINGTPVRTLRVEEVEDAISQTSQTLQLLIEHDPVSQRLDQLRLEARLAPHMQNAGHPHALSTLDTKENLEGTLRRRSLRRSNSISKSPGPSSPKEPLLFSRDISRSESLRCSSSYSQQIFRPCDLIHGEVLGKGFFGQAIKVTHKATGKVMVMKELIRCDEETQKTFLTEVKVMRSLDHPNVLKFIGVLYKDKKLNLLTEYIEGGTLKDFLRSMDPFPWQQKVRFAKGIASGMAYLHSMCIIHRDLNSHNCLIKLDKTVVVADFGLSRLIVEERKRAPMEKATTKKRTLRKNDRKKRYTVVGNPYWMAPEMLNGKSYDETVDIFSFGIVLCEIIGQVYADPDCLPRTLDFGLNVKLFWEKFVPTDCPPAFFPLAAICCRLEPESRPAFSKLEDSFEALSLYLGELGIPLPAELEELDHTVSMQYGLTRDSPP

ULK1 = molecular target: T4, ULK1 (Homo sapiens, UniProt O75385)
T4 sequence (O75385 1-1050): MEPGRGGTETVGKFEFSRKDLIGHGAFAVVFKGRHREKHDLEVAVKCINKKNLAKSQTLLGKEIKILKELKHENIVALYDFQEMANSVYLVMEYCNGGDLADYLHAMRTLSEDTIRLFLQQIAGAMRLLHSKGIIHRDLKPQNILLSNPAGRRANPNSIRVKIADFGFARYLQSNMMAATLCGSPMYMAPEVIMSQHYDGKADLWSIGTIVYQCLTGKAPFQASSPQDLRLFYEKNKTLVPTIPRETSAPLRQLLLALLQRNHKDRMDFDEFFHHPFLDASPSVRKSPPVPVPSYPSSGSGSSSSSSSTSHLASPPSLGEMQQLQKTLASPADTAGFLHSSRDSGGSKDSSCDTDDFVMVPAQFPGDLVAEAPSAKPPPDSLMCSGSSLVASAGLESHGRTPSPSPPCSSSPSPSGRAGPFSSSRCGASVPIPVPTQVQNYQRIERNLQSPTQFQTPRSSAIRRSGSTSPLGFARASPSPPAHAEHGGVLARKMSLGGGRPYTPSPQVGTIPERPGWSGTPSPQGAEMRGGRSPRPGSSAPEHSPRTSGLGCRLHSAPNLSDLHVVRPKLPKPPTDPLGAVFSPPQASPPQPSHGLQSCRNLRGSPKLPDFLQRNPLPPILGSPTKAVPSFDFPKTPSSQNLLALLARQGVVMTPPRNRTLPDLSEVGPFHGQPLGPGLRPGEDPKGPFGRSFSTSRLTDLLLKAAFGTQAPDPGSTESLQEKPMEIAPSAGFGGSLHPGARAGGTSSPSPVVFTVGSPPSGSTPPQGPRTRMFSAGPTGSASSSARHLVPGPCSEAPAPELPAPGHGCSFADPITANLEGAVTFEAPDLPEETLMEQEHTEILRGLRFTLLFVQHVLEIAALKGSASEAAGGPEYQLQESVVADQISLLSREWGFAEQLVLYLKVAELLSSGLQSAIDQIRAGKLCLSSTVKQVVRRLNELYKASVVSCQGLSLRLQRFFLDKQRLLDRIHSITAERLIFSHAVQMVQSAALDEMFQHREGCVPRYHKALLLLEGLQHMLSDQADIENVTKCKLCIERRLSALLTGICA

[1] = read-out: Talazoparib (BMN 673) / %Ctrl @ 10000nM
[2] = read-out: Olaparib / %Ctrl @ 10000nM
[3] = read-out: Niraparib (MK-4827) / %Ctrl @ 10000nM
[4] = read-out: Rucaparib / %Ctrl @ 10000nM, binding competition, % of control

Sequence of FYN (P06241 whole entry): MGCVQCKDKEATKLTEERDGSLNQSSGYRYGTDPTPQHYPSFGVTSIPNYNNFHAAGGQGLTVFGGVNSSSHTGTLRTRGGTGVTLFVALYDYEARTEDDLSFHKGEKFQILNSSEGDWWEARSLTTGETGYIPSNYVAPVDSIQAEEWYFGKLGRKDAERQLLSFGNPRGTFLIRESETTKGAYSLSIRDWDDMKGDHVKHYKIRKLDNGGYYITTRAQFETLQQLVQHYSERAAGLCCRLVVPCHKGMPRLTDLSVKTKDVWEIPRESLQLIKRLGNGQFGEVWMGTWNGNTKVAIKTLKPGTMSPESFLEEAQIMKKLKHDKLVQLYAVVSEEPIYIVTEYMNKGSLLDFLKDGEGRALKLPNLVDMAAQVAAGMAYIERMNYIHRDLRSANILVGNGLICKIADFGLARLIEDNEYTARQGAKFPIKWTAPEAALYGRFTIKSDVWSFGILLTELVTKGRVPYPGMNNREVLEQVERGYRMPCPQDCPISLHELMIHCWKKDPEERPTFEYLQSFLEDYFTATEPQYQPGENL

Cn1ncnc1[C@H]1c2n[nH]c(=O)c3cc(F)cc(c23)N[C@@H]1c1ccc(F)cc1 [Talazoparib]
percent of control binding at 10 µM (FYN; [1]): 100%
percent of control binding at 10 µM (MAPKAPK5; [1]): 93%
percent of control binding at 10 µM (AMPK-alpha2; [1]): 94%
percent of control binding at 10 µM (IKK-alpha; [1]): 100%
percent of control binding at 10 µM (DDR1; [1]): 84%
percent of control binding at 10 µM (EPHA5; [1]): 96%
percent of control binding at 10 µM (LIMK2; [1]): 100%
percent of control binding at 10 µM (ULK1; [1]): 94%

O=C(c1cc(Cc2n[nH]c(=O)c3ccccc23)ccc1F)N1CCN(C(=O)C2CC2)CC1 [Olaparib]
percent of control binding at 10 µM (FYN; [2]): 72%
percent of control binding at 10 µM (MAPKAPK5; [2]): 87%
percent of control binding at 10 µM (AMPK-alpha2; [2]): 93%
percent of control binding at 10 µM (IKK-alpha; [2]): 79%
percent of control binding at 10 µM (DDR1; [2]): 77%
percent of control binding at 10 µM (EPHA5; [2]): 96%
percent of control binding at 10 µM (LIMK2; [2]): 100%
percent of control binding at 10 µM (ULK1; [2]): 83%

NC(=O)c1cccc2cn(-c3ccc([C@@H]4CCCNC4)cc3)nc12 [Niraparib]
percent of control binding at 10 µM (FYN; [3]): 88%
percent of control binding at 10 µM (MAPKAPK5; [3]): 86%
percent of control binding at 10 µM (AMPK-alpha2; [3]): 89%
percent of control binding at 10 µM (IKK-alpha; [3]): 100%
percent of control binding at 10 µM (DDR1; [3]): 85%
percent of control binding at 10 µM (EPHA5; [3]): 94%
percent of control binding at 10 µM (LIMK2; [3]): 91%
percent of control binding at 10 µM (ULK1; [3]): 100%

CNCc1ccc(-c2[nH]c3cc(F)cc4c3c2CCNC4=O)cc1 [Rucaparib]
percent of control binding at 10 µM (FYN; [4]): 100%
percent of control binding at 10 µM (MAPKAPK5; [4]): 88%
percent of control binding at 10 µM (AMPK-alpha2; [4]): 87%
percent of control binding at 10 µM (IKK-alpha; [4]): 42%
percent of control binding at 10 µM (DDR1; [4]): 96%
percent of control binding at 10 µM (EPHA5; [4]): 93%
percent of control binding at 10 µM (LIMK2; [4]): 96%
percent of control binding at 10 µM (ULK1; [4]): 64%
